How the values were obtained:
HT-22 cells = assay: Protection against ROS production induced by glutamate in HT-22 cells; assay type: cell-based; conditions: Mus musculus
[1] = system: mitochondrial complex II-III; assay: Mitochondrial complex II-III activity in extracted mitochondria; assay type: biochemical, rat; conditions: with and without antimycin A
Procedure: (§1) Fresh rat heart was removed and placed in ice-cold mitochondrial isolation buffer containing 210 mM mannitol, 70 mM sucrose, 5 mM HEPES, and 1 mM EDTA, pH 7. The heart was homogenized immediately, and the mitochondrial fraction was isolated by differential centrifugation as described previously (Trounce et al., 1996). Mitochondria were stored at −80° C. until subsequent analysis.
(§2) All mitochondrial activity assays were performed according to previous publications with minimal modifications for complex I (Lenaz et al., 2004), complex I-III, complex II, complex III, and II-III (Trounce et al., 1996). […] Complex I activity was monitored by adding NADH to the mix with or without rotenone/antimycin A. The final data were normalized to blank values at time zero. The reaction was monitored in a kinetic spectrophotometer at 340 nm. Complex I activity was measured in arbitrary units and normalized to control levels for statistical analysis. Isolated mitochondria equivalent to 40-200 μg mitochondrial protein was used for each assay, except for assays with inhibitors, when larger amount of mitochondria (3 to 5 folds) were used to ensure that inhibition was distinguishable. Final data were normalized to control levels. For complex I-III activity, the reaction was initiated with the addition of NADH, cyt c was used as final substrate and its reduction was monitored at 550 nm. […]

[2] = system: mitochondrial complex III; assay: Mitochondrial complex III activity assay; assay type: biochemical, rat; conditions: data not shown
Procedure: as §1, §2

[3] = system: rotenone induced rat model of PD; assay: Rotenone model of PD: striatal monoamines, brain complex I-III activity and total ROS; assay type: in vivo
Procedure: All mitochondrial activity assays were performed according to previous publications with minimal modifications for complex I (Lenaz et al., 2004), complex I-III, complex II, complex III, and II-III (Trounce et al., 1996). All assays used a similar master mix that contained potassium phosphate pH 7.4 (50 mM), BSA 2.5mg/ml, MgCl2 5 mM, KCN (2 mM), and various inhibitors or substrates, including rotenone (6 μM), antimycin A (2 μM), NADH (150 μM), CoQ1 (60 μM), cyt c (50 μM), succinate (8 mM), and DBH2 (100 μM). Complex I activity was monitored by adding NADH to the mix with or without rotenone/antimycin A. The final data were normalized to blank values at time zero. The reaction was monitored in a kinetic spectrophotometer at 340 nm. Complex I activity was measured in arbitrary units and normalized to control levels for statistical analysis. Isolated mitochondria equivalent to 40-200 μg mitochondrial protein was used for each assay, except for assays with inhibitors, when larger amount of mitochondria (3 to 5 folds) were used to ensure that inhibition was distinguishable. Final data were normalized to control levels. For complex I-III activity, the reaction was initiated with the addition of NADH, cyt c was used as final substrate and its reduction was monitored at 550 nm. For assay of complex II-III activity, succinate was added instead of NADH, and the electron transfer to cyt c was performed according to previous publications (Atamna et al., 2008). To test whether the electrons from the reduced form of MB (MBH2) can be transferred to cyt c in mitochondrial lysate, we added 10 μM 2,7-dichlorofluorescin (DCFH, Invitrogen, Carlsbad, Calif.) to the reaction system. Free radicals convert non-fluorescent DCFH to highly fluorescent DCF (Ex, 488 nm, and Em, 530 nm). In the presence of cyt c, which accepts electrons from MBH2, conversion of DCFH to DCF is decreased.
Rats were assigned to three groups: control animals received vehicle infusion and daily saline injection (Veh/Sal N=6-8); a second group received rotenone infusion at the dose of 5 mg/kg/day and daily saline injection (ROT/Saline N=8-11); and the third group received rotenone infusion (5 mg/kg/day) and MB injection at the dose of 500 μg/kg/day (ROT/MB N=8-10). Vehicle or rotenone was infused via Alzet osmotic mini pumps that were filled with vehicle or rotenone dissolved in vehicle (equal volumes of dimethylsulfoxide and polyethylene glycol). Pumps containing vehicle or rotenone were sterilized with UV irradiation and implanted subcutaneously on the back. Intraperitoneal injections were administered with normal saline or MB, 500 μg/kg/day, diluted in normal saline to 500 μl of final volume. Rats were sacrificed on day 8 at four hours after last dose of MB or saline treatment.
After completion of neurological assessments and behavioral tests, rats were killed on the 8th day of rotenone infusion under anesthesia induced by xylazine (20 mg/kg, i.p.) and ketamine (100 mg/kg, i.p.). All osmotic pumps were checked for the residual liquid to ensure proper drug delivery. One hemisphere was fixed by 4% paraformaldehyde in phosphate buffer for 48 hr until processing for sectioning. The other hemisphere was snap-frozen in liquid nitrogen, and kept at −80° C. until extraction for biochemical analysis. Striatum dissected from a separate set of animals were used for analysis of monoamines by HPLC. […]

FRDA fibroblast = assay: BSO induced FRDA fibroblast cell death; assay type: cell-based

Structure (SMILES): CN(C)c1ccc2nc3ccc(=[N+](C)C)cc-3sc2c1 [methylene blue]
- EC50 (HT-22 cells): 20.4 nM
- Effect on complex II-III activity [1]: no significant effects
- Effect on complex III activity alone [2]: no significant effect
- Decrease of complex I-III activity in brain extracts ([3]; MB 500 μg/kg/day i.p.): prevented
- Overall ROS in brain extracts ([3]; MB 500 μg/kg/day i.p.): attenuated in the ROT/MB group to basal level
- Striatum L-DOPAC depletion ([3]; MB 500 μg/kg/day i.p.): almost completely rescued
- Striatum dopamine depletion ([3]; MB 500 μg/kg/day i.p.): almost completely rescued
- Striatum 5-HT levels ([3]; all three groups): no significant differences
- Damaging effects of BSO (cell death) (FRDA fibroblast): greatly ameliorates

Reference: US20140148446A1, “COMPOUNDS THAT ENABLE ALTERNATIVE MITOCHONDRIAL ELECTRON TRANSFER” (University of North Texas Health Science Center, priority 2010, published 2014)
